According to US9783505B2, “Substituted diaminopyrimidyl compounds, compositions thereof, and methods of treatment therewith” (Signal Pharmaceuticals, LLC, priority 2013, dated 2017):

These compounds were tested against T1, His-PKC-theta (Homo sapiens, UniProt Q04759) (assay: PKC-theta Assay (384-well time resolved fluorescence, IMAP TR-FRET)). Settings: Table 2; read-out: Act. Level (IC50 in the PKC-theta Assay).
T1 construct: His; purchased Invitrogen
Assay type: biochemical
Procedure: PKC-theta Assay. A 384-well time resolved fluorescence assay was used to monitor PKC-theta activity. The PKC-theta assay was run in the following assay buffer: 50 mM HEPES pH 7.6, 10 mM MgCl2, 1 mM DTT, 0.01% Triton X-100, 0.01% BSA and 0.1 mM EDTA. To initiate the reaction, 200 nM of Fam-labeled S6-derived peptide (Molecular Devices) and 10 μM of ATP were mixed with 142 pM of His-PKC-theta (Invitrogen) for a total assay volume of 25 μL in each well. The assay was incubated at room temperature for 2 hours and terminated using a 60 μL/well mixture of Detection Binding Solution: 70% IMAP Progressive Binding Buffer A, 30% IMAP Progressive Binding Buffer B, 1:600 Progressive Binding Reagent, and 1:400 TR-FRET Tb Donor (Molecular Devices). The assay plates were then incubated overnight at room temperature and read on a Perkin-Elmer Envision Reader.

T1 sequence (Q04759 whole entry): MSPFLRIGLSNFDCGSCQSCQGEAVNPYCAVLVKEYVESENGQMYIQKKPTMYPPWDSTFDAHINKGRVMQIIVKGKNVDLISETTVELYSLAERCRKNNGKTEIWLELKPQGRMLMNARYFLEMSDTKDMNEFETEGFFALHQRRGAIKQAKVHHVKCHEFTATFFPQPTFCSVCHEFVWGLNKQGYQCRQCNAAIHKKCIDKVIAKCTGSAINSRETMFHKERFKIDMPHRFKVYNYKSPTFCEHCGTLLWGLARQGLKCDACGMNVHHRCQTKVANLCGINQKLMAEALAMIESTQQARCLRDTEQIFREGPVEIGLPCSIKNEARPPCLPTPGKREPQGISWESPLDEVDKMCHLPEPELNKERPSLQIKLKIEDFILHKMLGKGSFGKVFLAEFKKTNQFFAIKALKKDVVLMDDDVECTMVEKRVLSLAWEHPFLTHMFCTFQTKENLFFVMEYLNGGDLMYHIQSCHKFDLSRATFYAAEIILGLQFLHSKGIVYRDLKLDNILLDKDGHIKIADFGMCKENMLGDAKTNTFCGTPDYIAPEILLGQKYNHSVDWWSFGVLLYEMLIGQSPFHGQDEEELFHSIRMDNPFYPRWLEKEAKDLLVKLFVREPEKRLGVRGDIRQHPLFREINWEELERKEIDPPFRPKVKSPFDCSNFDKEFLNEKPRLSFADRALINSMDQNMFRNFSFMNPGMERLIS

IC50	SMILES
100 to 800 nM	CC1(C)[C@@H](O)C[C@H]1Nc1nc(NCCc2ccccc2OC(F)F)ncc1C#N [Cmpd 136]
100 to 800 nM	CC1(C)C[C@H](Nc2nc(NCCc3ccccc3C#N)ncc2C#N)CC[C@@H]1O [Cmpd 156]
100 to 800 nM	CC(=O)Nc1ccc(CCNc2ncc(C#N)c(N[C@@H]3CC[C@H](O)C(C)(C)C3)n2)cc1 [Cmpd 130]
2000 to 10000 nM	Cc1nnnn1-c1ccccc1CCNc1ncc(C#N)c(N[C@@H]2CC[C@H](O)C(C)(C)C2)n1 [Cmpd 168]
100 to 800 nM	CC1(C)C[C@H](Nc2nc(NCCc3cc(Cl)ccc3C(F)(F)F)ncc2C#N)CC[C@@H]1O [Cmpd 183]
2000 to 10000 nM	CC1(C)[C@H](Nc2nc(NCCc3cccc(Cl)c3)ncc2C#N)C[C@H]1C(N)=O [Cmpd 163]
100 to 800 nM	CC1(C)C[C@H](Nc2nc(NCCc3ccc(C(N)=O)cc3)ncc2C#N)CC[C@@H]1O [Cmpd 154]
100 to 800 nM	CN(C)S(=O)(=O)c1ccc(CCNc2ncc(C#N)c(N[C@@H]3CC[C@H](O)C(C)(C)C3)n2)cc1 [Cmpd 175]
100 to 800 nM	CC1(C)C[C@H](O)CC[C@H]1Nc1nc(NCCc2cccc(Cl)c2)ncc1C#N [Cmpd 188]
100 to 800 nM	CC1(C)C[C@H](Nc2nc(NCCc3cccc(S(N)(=O)=O)c3)ncc2C#N)CC[C@@H]1O [Cmpd 172]
800 to 2000 nM	CC1(C)C[C@H](Nc2nc(NCCc3cccc(C#N)c3)ncc2C#N)CC[C@@H]1O [Cmpd 166]
100 to 800 nM	CN1CCN(S(=O)(=O)c2ccc(CCNc3ncc(C#N)c(N[C@@H]4CC[C@H](O)C(C)(C)C4)n3)cc2)CC1 [Cmpd 179]
100 to 800 nM	CC1(C)C[C@H](Nc2nc(NCCc3ccc(C#N)c(Cl)c3)ncc2C#N)CC[C@@H]1O [Cmpd 139]
100 to 800 nM	CN(C)c1ccc(CCNc2ncc(C#N)c(N[C@@H]3CC[C@H](O)C(C)(C)C3)n2)cc1 [Cmpd 129]
< 100 nM	CC1(C)C[C@H](Nc2nc(NCCc3cc(F)cc(Cl)c3)ncc2C#N)CC[C@@H]1O [Cmpd 184]
< 100 nM	CC1(C)C[C@H](Nc2nc(NCCc3cccc(F)c3)ncc2C#N)CC[C@@H]1O [Cmpd 196]

Further lines, the compound ahead of its results:

SMILES	IC50
CC1(C)[C@@H](O)C[C@H]1Nc1nc(NCCc2ccc(-c3ccc(F)cc3)cc2)ncc1C#N [Cmpd 120]	100 to 800 nM
CC1(C)[C@@H](O)C[C@H]1Nc1nc(NCCc2cccc3ccccc23)ncc1C#N [Cmpd 128]	100 to 800 nM
CC1(C)C[C@H](Nc2nc(NCC(O)c3ccc(O)cc3)ncc2C#N)CC[C@@H]1O (stereo partly drawn) [Cmpd 80]	2000 to 10000 nM
N#Cc1cnc(NCc2ccccc2C(F)(F)F)nc1N[C@H]1CC[C@@H](O)CC1 [Cmpd 8]	100 to 800 nM
CC1(C)[C@@H](O)C[C@H]1Nc1nc(NCCc2ccc(OC3CCCC3)cc2)ncc1C#N [Cmpd 118]	800 to 2000 nM
CC1(C)[C@@H](O)C[C@H]1Nc1nc(NCCc2ccc(C#N)cc2)ncc1C#N [Cmpd 38]	100 to 800 nM
COCCOc1ccc(CCNc2ncc(C#N)c(N[C@@H]3CC[C@H](O)C(C)(C)C3)n2)cc1 [Cmpd 62]	100 to 800 nM
N#Cc1ccc(CCNc2ncc(C#N)c(N[C@H]3CC[C@@H](O)CC3)n2)cc1 [Cmpd 73]	800 to 2000 nM
CC1(C)C[C@H](Nc2nc(NCCc3ccc(C(F)(F)F)cc3)ncc2C#N)CC[C@@H]1O [Cmpd 99]	100 to 800 nM
CC1(C)[C@@H](O)C[C@H]1Nc1nc(NCCc2ccc(N3CCCCC3)cc2)ncc1C#N [Cmpd 114]	800 to 2000 nM
CC1(C)[C@@H](O)C[C@H]1Nc1nc(NCCc2ccc(-c3ccccc3)cc2)ncc1C#N [Cmpd 111]	100 to 800 nM
CC1(C)C[C@H](Nc2nc(NCCc3ccc(S(N)(=O)=O)cc3)ncc2C#N)CC[C@@H]1O [Cmpd 65]	100 to 800 nM
CC1(C)[C@@H](O)C[C@H]1Nc1nc(NCCc2ccc(C(F)(F)F)cc2)ncc1C#N [Cmpd 46]	800 to 2000 nM
Cc1nnnn1-c1ccccc1CNc1ncc(C#N)c(N[C@@H]2CC[C@@H](O)C(C)(C)C2)n1 [Cmpd 18]	2000 to 10000 nM
C[C@@H](CNc1ncc(C#N)c(N[C@@H]2C[C@H](O)C2(C)C)n1)c1ccccc1 [Cmpd 41]	800 to 2000 nM
COc1cccc(CCNc2ncc(C#N)c(N[C@@H]3CC[C@H](O)C(C)(C)C3)n2)c1 [Cmpd 31]	< 100 nM
Cc1c(CO)cccc1Nc1nc(NCc2cnccc2C(F)(F)F)ncc1C#N [Cmpd 7]	100 to 800 nM
COc1cccc(CCNc2ncc(C#N)c(N[C@@H]3C[C@H](O)C3(C)C)n2)c1OC [Cmpd 105]	800 to 2000 nM
CC1(C)[C@@H](O)C[C@H]1Nc1nc(NCCc2ccc(O)cc2)ncc1C#N [Cmpd 84]	100 to 800 nM
Cc1cc(C)n(-c2ccc(CCNc3ncc(C#N)c(N[C@@H]4C[C@H](O)C4(C)C)n3)cc2)n1 [Cmpd 121]	800 to 2000 nM
CC1(C)[C@@H](O)C[C@H]1Nc1nc(NCCc2ccc(Cl)c(Cl)c2)ncc1C#N [Cmpd 107]	100 to 800 nM

Same assay, conditions: read-out: Act. Level (IC50 in the PKC-theta Assay)

IC50	SMILES
< 100 nM	CC1(C)C[C@H](Nc2nc(NCCC3C(=O)Nc4ccccc43)ncc2C#N)CC[C@@H]1O (stereo partly drawn) [Cmpd 247]
100 to 800 nM	CC1(C)C(O)C(C)(C)C1Nc1nc(NCc2cnccc2C(F)(F)F)ncc1C#N (stereo not drawn) [Cmpd 130]
100 to 800 nM	CC1(C)C[C@H](Nc2nc(NCCc3c[nH]c4cc(Cl)ccc34)ncc2C#N)CC[C@@H]1O [Cmpd 173]
2000 to 10000 nM	Cc1ccn(CCNc2ncc(C#N)c(N[C@@H]3CC[C@H](O)C(C)(C)C3)n2)n1 [Cmpd 194]
2000 to 10000 nM	N#Cc1ccc2[nH]cc(CCNc3ncc(C#N)c(N[C@H]4CC[C@@H](O)CC4)n3)c2c1 [Cmpd 163]
2000 to 10000 nM	Cc1[nH]c2c(F)cc(F)cc2c1CCNc1ncc(C#N)c(N[C@H]2CC[C@@H](O)CC2)n1 [Cmpd 149]
100 to 800 nM	N#Cc1cnc(NCCC2C(=O)Nc3ccccc32)nc1N[C@H]1CC[C@@H](O)CC1 (stereo partly drawn) [Cmpd 155]
800 to 2000 nM	Cc1ccc(CCNc2ncc(C#N)c(N[C@@H]3CC[C@H](O)C(C)(C)C3)n2)cn1 [Cmpd 197]
100 to 800 nM	CC(C)(CO)CNc1nc(NCc2cnccc2C(F)(F)F)ncc1C#N [Cmpd 129]
800 to 2000 nM	CC(F)(F)COc1ncncc1CNc1ncc(C#N)c(NC23CCC(O)(CC2)CC3)n1 [Cmpd 156]
2000 to 10000 nM	N#Cc1cnc(NCCc2ncccc2C(F)(F)F)nc1N[C@H]1CC[C@@H](O)CC1 [Cmpd 151]
100 to 800 nM	CC1(C)[C@H](O)C[C@@H]1Nc1nc(NCc2c[n+]([O-])ccc2C(F)(F)F)ncc1C(F)(F)F [Cmpd 136]

More lines, now with the values behind:

SMILES	IC50
CC1(C)[C@H](O)C[C@@H]1Nc1nc(NCc2cncnc2OCCC(F)(F)F)ncc1C(F)(F)F [Cmpd 83]	< 100 nM
N#Cc1cnc(NCc2ccccc2Oc2ccccc2)nc1N[C@H]1CC[C@@H](O)CC1 [Cmpd 118]	100 to 800 nM
CC(C)c1ncncc1CNc1ncc(C#N)c(N[C@H]2C[C@@H](O)C2(C)C)n1 [Cmpd 119]	100 to 800 nM
C[C@@H]1CC[C@H](Nc2nc(NCc3cnccc3C(F)(F)F)ncc2C(F)(F)F)C[C@H]1O [Cmpd 63]	< 100 nM
CC1(C)[C@@H](O)C[C@H]1Nc1nc(NCc2cncnc2OCC(F)F)ncc1C(F)(F)F [Cmpd 7]	< 100 nM
CC1(C)[C@H](O)C[C@@H]1Nc1nc(NCc2cnccc2C(F)(F)F)ncc1C(F)(F)F [Cmpd 120]	100 to 800 nM
Cc1ccc(Oc2ncncc2CNc2ncc(C(F)(F)F)c(N[C@H]3CC[C@@H](O)CC3)n2)cc1 [Cmpd 19]	< 100 nM
CC(C)c1ncncc1CNc1ncc(C#N)c(N[C@@H]2C[C@H](CO)C2(C)C)n1 [Cmpd 54]	< 100 nM
CC(F)(F)COc1ncncc1CNc1ncc(C(F)(F)F)c(N[C@@H]2CC[C@H](O)C(C)(C)C2)n1 [Cmpd 29]	< 100 nM
CC1(C)[C@@H](O)C[C@H]1Nc1nc(NCc2cncnc2C(F)(F)F)ncc1C#N [Cmpd 61]	< 100 nM
CC(C)(F)c1ncncc1CNc1ncc(C(F)(F)F)c(N[C@@H]2C[C@H](O)C2(C)C)n1 [Cmpd 1]	< 100 nM
CC1(C)[C@@H](O)C[C@H]1Nc1nc(NCc2cnccc2C(F)(F)F)ncc1C(F)(F)F [Cmpd 24]	< 100 nM
CC1(C)[C@@H](O)C[C@H]1Nc1nc(NCc2c[n+]([O-])ccc2C(F)(F)F)ncc1C(F)(F)F [Cmpd 41]	< 100 nM
CC1(C)[C@H](O)C[C@H]1Nc1nc(NCc2cnccc2C(F)(F)F)ncc1C(F)(F)F [Cmpd 33]	< 100 nM
CCOc1ncncc1CNc1ncc(C(F)(F)F)c(N[C@@H]2CC[C@H](O)C(C)(C)C2)n1 [Cmpd 25]	< 100 nM
CC1(C)[C@@H](O)C[C@H]1Nc1nc(NCc2cncnc2-c2ccc(F)cc2)ncc1C#N [Cmpd 79]	< 100 nM
O[C@H]1CC[C@@H](Nc2nc(NCc3cncnc3C(F)(F)F)ncc2C(F)(F)F)CC1 [Cmpd 81]	< 100 nM
CC1(C)[C@H](O)C[C@@H]1Nc1nc(NCc2cncnc2OCCC(F)(F)F)ncc1C#N [Cmpd 89]	< 100 nM
CCOc1ncncc1CNc1ncc(C#N)c(N[C@@H]2CC[C@H](O)C(C)(C)C2)n1 [Cmpd 37]	< 100 nM
CCc1ncncc1CNc1ncc(C#N)c(N[C@@H]2C[C@H](O)C2(C)C)n1 [Cmpd 67]	< 100 nM
CC1(C)C[C@H](Nc2nc(NCc3cncnc3OCCF)ncc2C#N)CC[C@@H]1O [Cmpd 21]	< 100 nM
C[C@@H]1CC[C@H](Nc2nc(NCc3cnccc3C(F)(F)F)ncc2C#N)C[C@H]1O [Cmpd 87]	< 100 nM
CC1(C)C[C@H](Nc2nc(NCc3cncnc3OCC(F)F)ncc2C#N)CC[C@@H]1O [Cmpd 34]	< 100 nM
C[C@]1(O)CC[C@@H](Nc2nc(NCc3cnccc3C(F)(F)F)ncc2C#N)CC1 [Cmpd 71]	< 100 nM
CC1(C)[C@H](CO)C[C@H]1Nc1nc(NCc2cnccc2C(F)(F)F)ncc1C#N [Cmpd 51]	< 100 nM
CC1(C)[C@@H](O)C[C@H]1Nc1nc(NCc2cncnc2OCCC(F)(F)F)ncc1C#N [Cmpd 4]	< 100 nM
